# According to patent publication US9682056B2, “Oleacein for treating or preventing diseases resulting from atherosclerotic plaques” (Warszawski Uniwersytet Medyczny, priority 2012, dated 2017):
# Key:
# [1] = test system: metalloproteinase-9 (MMP-9) production; assay: MMP-9 production by LPS-stimulated atherosclerotic plaque from carotid artery, ELISA; type: cell-based; details: Homo sapiens; plaques (n=15) from endoartherectomy patients; LPS 1 μg/ml stimulation; 24 hours at 37° C.; average±standard error; read-out: IC50, inhibition of MMP-9 production
# Protocol: Atherosclerotic plaques (n=15) were obtained from patients subjected to endoartherectomy. The plaque obtained was divided into two portions, which were then incubated in buffered physiological saline (control), or buffered physiological saline in the presence of oleacein at the concentrations of 5, 10 and 20 μM for 24 hours at a temperature of 37° C. following prior stimulation with a solution of lipopolysaccharide at a concentration of 1 μg/ml. The unstimulated control consisted of physiological saline, in which the plaque was incubated for […]. The effect of oleacein on metalloproteinase-9 (MMP-9) production was determined using immunochemical ELISA (R&D System). The amount of MMP-9 (ng/ml) was calculated per mass of atherosclerotic plaque, and then described in terms of percentage in comparison to the stimulated control.
# [2] = test system: interleukin 10 (IL-10) production; assay: IL-10 production by atherosclerotic plaque, ELISA; type: cell-based, human; details: IL-10 amount per atherosclerotic plaque mass, % of stimulated control
# Excerpt: The effects of olacein on interleukin 10 (IL-10) production were investigated with the use of the ELISA immunochemical method (R&D system). The IL-10 amounts were converted into the atherosclerotic plaque mass and, subsequently, determined in % compared to the stimulated control.
structure (smiles),measurement,setting,value
C/C=C(/C=O)[C@@H](CC=O)CC(=O)OCCc1ccc(O)c(O)c1 [oleacein],IC50,[1],9.07 ± 1.2 µM
same,IL-10 production compared to the stimulated control,[2],about 267.1±61.5%
